Assay [1] deals with CDK9/cyclin T1 (Homo sapiens) (UniProt O60563+P50750). In words: Inhibition of N-terminal GST-fused full length human CDK9 (1 to 372 residues)/human His-CyclinT1 (1 to 726 residues) expressed in baculovirus expression system using CDK9 substrate at 1 uM in presence of ATP by Mobility shift assay.
The target of assay [2] is Misshapen-like kinase 1 (Homo sapiens) (UniProt Q8N4C8). In words: Inhibition of N-terminal GST-fused human MINK catalytic domain (1 to 314 residues) expressed in baculovirus expression system using Modified Erktide as substrate at 1 uM in presence of ATP by Mobility shift assay.
In assay [3] the target is cAMP-dependent protein kinase catalytic subunit gamma (Homo sapiens) (UniProt P22612). Nature of the assay: Inhibition of N-terminal GST-tagged full length human PKACgamma (1 to 351 residues) expressed in baculovirus expression system using Kemptide as substrate at 1 uM in presence of ATP by Mobility shift assay.
cAMP-dependent protein kinase catalytic subunit gamma (Homo sapiens), sequence (P22612 2-351 limits assumed): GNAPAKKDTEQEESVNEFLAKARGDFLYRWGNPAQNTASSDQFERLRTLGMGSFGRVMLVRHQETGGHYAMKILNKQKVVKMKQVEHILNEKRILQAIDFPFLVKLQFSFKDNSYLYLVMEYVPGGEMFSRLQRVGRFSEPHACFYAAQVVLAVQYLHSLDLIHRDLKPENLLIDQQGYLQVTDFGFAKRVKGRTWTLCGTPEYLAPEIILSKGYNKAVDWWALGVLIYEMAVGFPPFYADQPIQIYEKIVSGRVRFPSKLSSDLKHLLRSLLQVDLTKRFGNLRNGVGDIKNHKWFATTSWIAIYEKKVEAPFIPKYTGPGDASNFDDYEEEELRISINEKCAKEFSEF
Assay [4] addresses Fibroblast growth factor receptor 3 (Homo sapiens) (UniProt P22607). Nature of the assay: Inhibition of N-terminal GST-fused human FGFR3 cytoplasmic domain (436 to 806 residues) expressed in baculovirus-infected Sf21 cells using CSKtide as substrate at 1 uM in presence of ATP by Mobility shift assay.
For assay [5], the target named is Calcium/calmodulin-dependent protein kinase type II subunit delta (Homo sapiens) (UniProt Q13557). In words: Inhibition of N-terminal GST-tagged full length human CAMK2d (1 to 478 residues) expressed in baculovirus-infected Sf21 cells using GS peptide as substrate at 1 uM in presence of ATP by Mobility shift assay.
Calcium/calmodulin-dependent protein kinase type II subunit delta (Homo sapiens), sequence (Q13557 whole entry, the tested form may be a part): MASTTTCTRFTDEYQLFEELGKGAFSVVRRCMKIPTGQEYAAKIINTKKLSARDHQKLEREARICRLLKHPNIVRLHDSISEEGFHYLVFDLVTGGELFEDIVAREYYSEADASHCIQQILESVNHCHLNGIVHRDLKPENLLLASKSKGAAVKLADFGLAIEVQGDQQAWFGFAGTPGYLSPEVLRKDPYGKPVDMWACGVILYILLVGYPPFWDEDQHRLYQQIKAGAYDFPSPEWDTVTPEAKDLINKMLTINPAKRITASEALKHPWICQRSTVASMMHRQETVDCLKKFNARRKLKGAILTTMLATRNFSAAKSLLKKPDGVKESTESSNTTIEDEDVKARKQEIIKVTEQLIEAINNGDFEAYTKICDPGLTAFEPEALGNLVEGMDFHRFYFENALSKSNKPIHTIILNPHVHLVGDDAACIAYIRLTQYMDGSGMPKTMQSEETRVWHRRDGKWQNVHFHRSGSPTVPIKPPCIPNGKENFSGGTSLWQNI
Assay [6] deals with Mitogen-activated protein kinase 11 (Homo sapiens) (UniProt Q15759). Nature of the assay: Inhibition of N-terminal GST-fused full length human p38beta (1 to 364 residues) expressed in Escherichia coli expression system using Modified Erktide as substrate at 1 uM in presence of ATP by Mobility shift assay.
Assay [7] deals with RAC-alpha serine/threonine-protein kinase (Homo sapiens) (UniProt P31749). In words: Inhibition of N-terminal GST-tagged human AKT1 catalytic domain (104 to 480 residues) co-expressed with His-tagged PDK1 (1 to 556 residues) in baculovirus-infected Sf21 cells using Crosstide as substrate at 1 uM in presence of ATP by Mobility shift assay.
Assay [8] concerns the target NUAK family SNF1-like kinase 2 (Homo sapiens) (UniProt Q9H093). Nature of the assay: Inhibition of N-terminal GST-fused full length human Nuak2 (1 to 628 residues) expressed in baculovirus expression system using CHKtide as substrate at 1 uM in presence of ATP by Mobility shift assay.
The target in assay [9] is Dual specificity tyrosine-phosphorylation-regulated kinase 2 (Homo sapiens) (UniProt Q92630). In words: Inhibition of N-terminal GST-fused full length human DYRK2 (1 to 528 residues) expressed in baculovirus expression system using DYRKtide-F as substrate at 1 uM in presence of ATP by Mobility shift assay.
Dual specificity tyrosine-phosphorylation-regulated kinase 2 (Homo sapiens), sequence (Q92630 whole entry, the tested form may be a part): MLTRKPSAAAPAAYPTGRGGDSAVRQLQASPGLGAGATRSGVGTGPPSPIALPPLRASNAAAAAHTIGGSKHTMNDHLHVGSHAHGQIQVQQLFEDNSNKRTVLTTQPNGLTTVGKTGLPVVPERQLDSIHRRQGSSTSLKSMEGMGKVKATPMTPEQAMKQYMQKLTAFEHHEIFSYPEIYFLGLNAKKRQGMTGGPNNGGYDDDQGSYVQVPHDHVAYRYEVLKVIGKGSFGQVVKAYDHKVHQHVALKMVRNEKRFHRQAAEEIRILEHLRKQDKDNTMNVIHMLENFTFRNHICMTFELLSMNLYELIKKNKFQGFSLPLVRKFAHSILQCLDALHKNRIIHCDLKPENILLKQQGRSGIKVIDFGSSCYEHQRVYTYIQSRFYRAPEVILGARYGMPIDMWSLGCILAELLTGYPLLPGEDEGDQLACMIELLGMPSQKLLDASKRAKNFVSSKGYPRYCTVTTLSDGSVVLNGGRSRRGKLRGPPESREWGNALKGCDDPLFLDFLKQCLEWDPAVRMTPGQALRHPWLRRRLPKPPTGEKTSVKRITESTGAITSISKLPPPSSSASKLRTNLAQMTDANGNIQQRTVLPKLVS
In assay [10] the target is Receptor tyrosine-protein kinase erbB-2 (Homo sapiens) (UniProt P04626). Nature of the assay: Inhibition of N-terminal His-tagged human HER2 cytoplasmic domain (676 to 1255 residues) expressed in baculovirus-infected Sf21 cells using Srctide as substrate at 1 uM in presence of ATP by Mobility shift assay.
Assay [11] concerns the target Mitogen-activated protein kinase 10 (Homo sapiens) (UniProt P53779). In words: Inhibition of N-terminal GST-fused full length human JNK3 (1 to 426 residues) expressed in Escherichia coli expression system using Modified ERKtide as substrate at 1 uM in presence of ATP by Mobility shift assay.
Assay [12] addresses Ribosomal protein S6 kinase alpha-1 (Homo sapiens) (UniProt Q15418). In words: Inhibition of N-terminal GST-fused human full length RSK1 (1 to 735 residues) expressed in baculovirus expression system using S6K peptide(N-FL) as substrate at 1 uM in presence of ATP by Mobility shift assay.
The target of assay [13] is Serine/threonine-protein kinase 38-like (Homo sapiens) (UniProt Q9Y2H1). Nature of the assay: Inhibition of N-terminal GST-fused full length human NDR2 (1 to 464 residues) expressed in baculovirus expression system using SGKtide as substrate at 1 uM in presence of ATP by Mobility shift assay.
For assay [14], the target named is Tyrosine-protein kinase Lyn (Homo sapiens) (UniProt P07948). In words: Inhibition of N-terminal GST-tagged full length human LynA(1 to 512 residues ) expressed in baculovirus-infected Sf21 cells using Srctide as substrate at 1 uM in presence of ATP by Mobility shift assay.
Tyrosine-protein kinase Lyn (Homo sapiens), sequence (P07948 2-512 limits assumed): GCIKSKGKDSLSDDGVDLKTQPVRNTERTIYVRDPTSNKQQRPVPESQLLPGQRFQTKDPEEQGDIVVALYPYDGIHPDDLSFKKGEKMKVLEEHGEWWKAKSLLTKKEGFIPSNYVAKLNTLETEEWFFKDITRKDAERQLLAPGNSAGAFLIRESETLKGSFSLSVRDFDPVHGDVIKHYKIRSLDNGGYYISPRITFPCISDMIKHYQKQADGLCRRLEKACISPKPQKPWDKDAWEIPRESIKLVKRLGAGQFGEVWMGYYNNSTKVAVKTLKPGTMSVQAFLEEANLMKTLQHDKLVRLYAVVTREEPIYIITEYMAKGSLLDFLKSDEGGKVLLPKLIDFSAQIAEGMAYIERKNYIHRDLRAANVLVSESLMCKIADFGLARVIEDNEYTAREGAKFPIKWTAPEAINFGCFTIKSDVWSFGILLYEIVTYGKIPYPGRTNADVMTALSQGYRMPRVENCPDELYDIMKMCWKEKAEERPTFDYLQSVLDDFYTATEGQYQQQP
The target of assay [15] is Ephrin type-B receptor 3 (Homo sapiens) (UniProt P54753). Nature of the assay: Inhibition of N-terminal GST-fused human EPHB3 cytoplasmic domain (596 to 998 residues) expressed in baculovirus-infected Sf21 cells using Blk/Lyntide as substrate at 1 uM in presence of ATP by Mobility shift assay.
Ephrin type-B receptor 3 (Homo sapiens), sequence (P54753 whole entry, the tested form may be a part): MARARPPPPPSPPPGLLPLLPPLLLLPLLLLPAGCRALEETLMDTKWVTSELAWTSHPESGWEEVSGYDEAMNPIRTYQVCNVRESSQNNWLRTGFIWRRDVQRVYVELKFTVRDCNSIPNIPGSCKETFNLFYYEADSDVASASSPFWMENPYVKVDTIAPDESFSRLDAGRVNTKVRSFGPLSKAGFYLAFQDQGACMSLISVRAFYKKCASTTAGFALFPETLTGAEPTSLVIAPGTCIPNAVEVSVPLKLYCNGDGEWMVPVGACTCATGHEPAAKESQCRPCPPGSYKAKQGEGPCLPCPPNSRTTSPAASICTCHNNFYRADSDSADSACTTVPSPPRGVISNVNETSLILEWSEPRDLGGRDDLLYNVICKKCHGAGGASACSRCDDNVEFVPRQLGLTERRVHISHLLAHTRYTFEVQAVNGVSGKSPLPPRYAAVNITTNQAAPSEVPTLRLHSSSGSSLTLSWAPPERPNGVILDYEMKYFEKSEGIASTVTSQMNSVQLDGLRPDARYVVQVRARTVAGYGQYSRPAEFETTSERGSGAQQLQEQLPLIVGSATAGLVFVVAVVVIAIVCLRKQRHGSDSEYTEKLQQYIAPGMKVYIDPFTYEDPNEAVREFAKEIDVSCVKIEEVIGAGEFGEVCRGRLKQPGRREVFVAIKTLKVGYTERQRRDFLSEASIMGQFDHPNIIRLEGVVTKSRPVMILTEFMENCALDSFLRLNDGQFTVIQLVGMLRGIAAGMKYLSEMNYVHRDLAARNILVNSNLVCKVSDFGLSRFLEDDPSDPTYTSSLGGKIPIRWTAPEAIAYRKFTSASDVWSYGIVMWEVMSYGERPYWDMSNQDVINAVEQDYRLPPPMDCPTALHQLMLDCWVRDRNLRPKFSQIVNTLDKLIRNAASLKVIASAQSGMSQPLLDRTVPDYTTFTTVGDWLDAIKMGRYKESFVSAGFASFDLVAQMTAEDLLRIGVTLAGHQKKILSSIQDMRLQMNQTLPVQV
Assay [16] concerns the target Maternal embryonic leucine zipper kinase (Homo sapiens) (UniProt Q14680). Nature of the assay: Inhibition of N-terminal GST-fused truncated human MELK (1 to 493 residues) expressed in Escherichia coli expression system using GS peptide as substrate at 1 uM in presence of ATP by Mobility shift assay.
In assay [17] the target is Ephrin type-B receptor 1 (Homo sapiens) (UniProt P54762). Nature of the assay: Inhibition of N-terminal GST-fused human EPHB1 cytoplasmic domain (578 to 984 residues) expressed in baculovirus-infected Sf21 cells using Blk/Lyntide as substrate at 1 uM in presence of ATP by Mobility shift assay.
The target of assay [18] is Serine/threonine-protein kinase TBK1 (Homo sapiens) (UniProt Q9UHD2). Nature of the assay: Inhibition of N-terminal GST-fused full length human TBK1 (1 to 729 residues) expressed in baculovirus expression system using CKtide as substrate at 1 uM in presence of ATP by Mobility shift assay.
Assay [19] has as its target Protein kinase C epsilon type (Homo sapiens) (UniProt Q02156). In words: Inhibition of N-terminal GST-fused human full length PKC-epsilon (1 to 737 residues ) expressed in baculovirus expression system using PKC peptide as substrate at 1 uM in presence of ATP by Mobility shift assay.
The target of assay [20] is Serine/threonine-protein kinase N1 (Homo sapiens) (UniProt Q16512). In words: Inhibition of N-terminal GST-fused full length human PKN1 (1 to 942 residues) expressed in baculovirus expression system using S6K peptide as substrate at 1 uM in presence of ATP by IMAP.
Assay [21] concerns the target Ribosomal protein S6 kinase beta-1 (Homo sapiens) (UniProt P23443). In words: Inhibition of N-terminal GST-fused human p70S6K catalytic domain (1 to 421 residues) expressed in baculovirus expression system using S6K2 peptide as substrate at 1 uM in presence of ATP by Mobility shift assay.
Assay [22] deals with Tyrosine-protein kinase FRK (Homo sapiens) (UniProt P42685). In words: Inhibition of N-terminal GST-fused human FRK catalytic domain (223 to 505 residues) expressed in baculovirus-infected Sf21 cells using Srctide as substrate at 1 uM in presence of ATP by Mobility shift assay.

Fibroblast growth factor receptor 3 (Homo sapiens), sequence (P22607 23-806 limits assumed): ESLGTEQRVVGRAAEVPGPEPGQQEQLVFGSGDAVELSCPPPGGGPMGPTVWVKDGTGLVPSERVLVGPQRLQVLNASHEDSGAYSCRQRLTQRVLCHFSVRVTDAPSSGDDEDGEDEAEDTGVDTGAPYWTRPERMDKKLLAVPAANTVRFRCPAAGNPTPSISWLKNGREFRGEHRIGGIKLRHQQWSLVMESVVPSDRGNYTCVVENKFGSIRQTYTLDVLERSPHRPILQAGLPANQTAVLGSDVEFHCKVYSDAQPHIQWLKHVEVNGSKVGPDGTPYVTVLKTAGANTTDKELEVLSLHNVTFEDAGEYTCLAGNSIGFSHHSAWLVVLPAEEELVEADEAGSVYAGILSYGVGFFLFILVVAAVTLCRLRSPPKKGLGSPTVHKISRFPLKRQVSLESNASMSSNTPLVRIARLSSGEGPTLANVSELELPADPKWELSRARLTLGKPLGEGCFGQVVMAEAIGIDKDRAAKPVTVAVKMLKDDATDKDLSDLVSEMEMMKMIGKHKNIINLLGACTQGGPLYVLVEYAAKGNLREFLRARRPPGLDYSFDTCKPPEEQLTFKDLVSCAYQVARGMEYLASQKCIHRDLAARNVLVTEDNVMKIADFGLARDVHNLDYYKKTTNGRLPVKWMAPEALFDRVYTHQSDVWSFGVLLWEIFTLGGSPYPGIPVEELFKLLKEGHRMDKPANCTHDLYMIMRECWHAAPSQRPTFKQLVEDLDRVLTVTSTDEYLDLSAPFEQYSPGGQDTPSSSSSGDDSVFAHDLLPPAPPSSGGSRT
Maternal embryonic leucine zipper kinase (Homo sapiens), sequence (Q14680 whole entry, looked up, the tested form may be a part): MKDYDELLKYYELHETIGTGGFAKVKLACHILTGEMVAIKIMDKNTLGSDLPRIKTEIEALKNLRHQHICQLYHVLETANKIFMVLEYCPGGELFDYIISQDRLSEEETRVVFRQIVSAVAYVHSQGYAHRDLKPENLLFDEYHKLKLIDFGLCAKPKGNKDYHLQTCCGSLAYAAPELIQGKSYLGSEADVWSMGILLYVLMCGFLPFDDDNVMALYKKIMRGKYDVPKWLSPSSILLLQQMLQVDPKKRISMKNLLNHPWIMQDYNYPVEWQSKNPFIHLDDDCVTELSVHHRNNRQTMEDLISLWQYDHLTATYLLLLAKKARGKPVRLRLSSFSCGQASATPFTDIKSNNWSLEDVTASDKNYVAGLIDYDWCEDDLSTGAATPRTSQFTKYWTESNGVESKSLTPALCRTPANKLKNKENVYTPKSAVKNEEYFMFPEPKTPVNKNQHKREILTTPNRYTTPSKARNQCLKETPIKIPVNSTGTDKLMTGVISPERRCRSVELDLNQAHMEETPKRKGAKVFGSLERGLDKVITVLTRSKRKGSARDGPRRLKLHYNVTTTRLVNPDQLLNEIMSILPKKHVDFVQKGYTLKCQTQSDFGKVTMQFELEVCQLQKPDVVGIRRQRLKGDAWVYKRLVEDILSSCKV
Ribosomal protein S6 kinase beta-1 (Homo sapiens), sequence (P23443 whole entry, looked up, the tested form may be a part): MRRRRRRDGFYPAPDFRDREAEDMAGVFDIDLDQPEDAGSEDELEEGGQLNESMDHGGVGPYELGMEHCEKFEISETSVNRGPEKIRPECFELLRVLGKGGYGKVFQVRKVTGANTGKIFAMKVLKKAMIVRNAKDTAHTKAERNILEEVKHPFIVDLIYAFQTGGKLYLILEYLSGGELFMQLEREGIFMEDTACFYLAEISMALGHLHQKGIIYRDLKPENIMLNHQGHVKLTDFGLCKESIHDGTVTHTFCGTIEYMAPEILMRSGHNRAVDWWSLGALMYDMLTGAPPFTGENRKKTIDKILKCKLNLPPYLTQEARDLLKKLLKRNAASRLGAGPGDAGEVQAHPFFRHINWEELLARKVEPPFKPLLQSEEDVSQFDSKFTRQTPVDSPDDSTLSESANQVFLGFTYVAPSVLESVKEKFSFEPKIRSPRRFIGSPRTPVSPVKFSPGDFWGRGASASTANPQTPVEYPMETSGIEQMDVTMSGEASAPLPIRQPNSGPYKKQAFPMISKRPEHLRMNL

Regarding `Cc1cc(C)c(CNC(=O)c2cc(Br)c3c(c2C)O[C@@](C)([C@H]2CC[C@H](N(C)C)CC2)O3)c(=O)[nH]1`, the inhibition – broadly, the drop in the measured response relative to a control, in per cent – is -5.3% in [1]; -2.6% in assay [2]; -1.4% in [3]; -1.9% in assay [4]; -1.4% in assay [5]; -3.1% in assay [6]. The inhibition in assay [7] is -2.9%; in assay [8], -4%; in [9], -2.3%; in assay [10], 6%; in assay [11], -2.9%; in assay [12] it was -6.4%. The inhibition in assay [13] was -2.4%; in [14], -3.7%; in assay [15], -4.4%; in [16], 2.9%; in [17] it was -2.7%; in assay [18], -4.6%. Besides, the inhibition in assay [19] was 17%; in [20] it was 6.7%; in [21] it was 4.3%; in assay [22], -3.6%.
As to `Cc1cc(C)c(CNC(=O)c2cc(Cl)c3c(c2C)O[C@@](C)([C@H]2CC[C@H](N(C)C)CC2)O3)c(=O)[nH]1` [VALEMETOSTAT], the inhibition in assay [1] was 4.3%; in assay [2] it was -4.6%; in assay [3], -2.4%; in [4] it was -2.3%; in assay [5], -4.5%; in assay [6], -5.6%. In addition, the inhibition was -2.9% in assay [7]; 2.1% in assay [8]; 6% in assay [9]; 5.6% in assay [10]; -5.8% in assay [11]; -0.2% in assay [12]. In addition, the inhibition in assay [13] was -1.3%; in assay [14], -3.7%; in assay [15], -5.9%; in assay [16] it was 1.3%; in [17] it was -3.4%; in assay [18], -2.6%. The inhibition in assay [19] was 16.4%; in assay [20] it was 8.3%; in assay [21], 1.5%; in assay [22], -4.5%.
